Measured values taken from patent publication US12521437B2 (Synthorx, Inc., priority 2019, dated 2026).

How the values were obtained:
NK cells = assay: pSTAT5 signaling in human LRS-derived PBMC samples, NK cells (flow cytometry); type: cell-based; settings: Table 13 (Example 11)
Experimental: (§1) These studies were performed at PrimityBio LLC (Fremont, CA). […] Staining panel for flow cytometry study of LRS-derived PBMC samples include markers for Effector T cells (Teff: CD3+, CD4+, CD8+, CD127+), NK cells (CD3-, CD16+), and Regulatory T cells (Treg: CD3+, CD4+, CD8-, IL-2Rα+, CD127-1).
(§2) Conjugates of Table 13 were synthesized by modification of SEQ NO. 1. These studies were performed at PrimityBio LLC (Fremont, CA).

Treg cells = assay: pSTAT5 signaling in human LRS-derived PBMC samples, Treg cells (flow cytometry); type: cell-based; settings: for EC50 for pSTAT5 signaling, Treg cells: Table 13 (Example 11); for Fold increase in Treg EC50 vs native IL-2: compared to native IL-2 run in each individual experiment
Experimental: as §1
(§3) These studies were performed at PrimityBio LLC (Fremont, CA). […] Staining panel for flow cytometry study of LRS-derived PBMC samples include markers CD4, CD4+ memory central, CD4+ memory effect, CD4+ memory T cells, CD4+ Naive T cells, CD4+ T cells, CD8, CD8+ memory central, CD8+ memory effect, CD8+ memory T cells, CD8+ Naive T cells, CD8+ T cells, NK cells, and T regulatory cells.
as §2

CTLL-2 = CTLL-2 proliferation; type: cell-based, mouse; settings: Table 13 (Example 11)
CD8+ T cells = assay: pSTAT5 signaling in human LRS-derived PBMC samples, CD8+ T cells (flow cytometry); type: cell-based; settings: Table 13 (Example 11)
Experimental: as §1, §3, §2

[1] = human transferrin; cited from earlier work

EC50 for pSTAT5 signaling, NK cells (NK cells) [pg/ml] | EC50 for pSTAT5 signaling, Treg cells (Treg cells) [pg/ml] | Fold increase in Treg EC50 vs native IL-2 (Treg cells) | EC50 for pSTAT5 signaling, CD8+ Tcells (CD8+ T cells) [pg/ml] | Substance | EC50 CTLL-2 proliferation (CTLL-2) [ng/mL] | CD8+/Treg ratio (CD8+ T cells) | half-life [1] [h]
2780819 | 175805 | 3663 | 12503386 | N88R/D109_30kD: IL-2 variant with N88R substitution and 30 kD PEG at D109 | 59.577 | 71 | –
2312847 | 11082 | 148 | 15025734 | N88R: IL-2 variant with N88R substitution [reference compound] | 0.363 | 1356 | –
20537 | 142 | 3 | 102255 | V91K: IL-2 variant with V91K substitution [reference compound] | 0.0995 | 720 | –
– | – | – | – | human transferrin: 679 amino acid polypeptide that is about 80 kDa in size and comprises two Fe^3+ binding sites | – | – | 170 to 288
